Assay results from PubChem BioAssay (NCI).
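Each compound was tested at five concentrations against cells in 96-well plates for 48 hours. GI50 is the concentration that inhibits growth by half. At the TGI there is no net growth.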

How the values were obtained:
Experiment in all cases: growth of human tumour cells (NCI), 48 h
[1] = system: 786-0 renal
[2] = system: A498 renal
[3] = system: A549 NSCLC
[4] = system: ACHN renal
[5] = system: BT-549 breast
[6] = system: CAKI-1 renal
[7] = system: CCRF-CEM leukemia
[8] = system: COLO 205 colon
[9] = system: DU-145 prostate
[10] = system: EKVX NSCLC
[11] = system: HCC-2998 colon
[12] = system: HCT-116 colon
[13] = system: HCT-15 colon
[14] = system: HL-60(TB) leukemia
[15] = system: HOP-62 NSCLC
[16] = system: HOP-92 NSCLC
[17] = system: HS 578T breast
[18] = system: HT29 colon
[19] = system: IGROV1 ovarian
[20] = system: K-562 leukemia
[21] = system: KM12 colon
[22] = system: LOX IMVI melanoma
[23] = system: M14 melanoma
[24] = system: MALME-3M melanoma
[25] = system: MCF7 breast
[26] = system: MDA-MB-231 breast
[27] = system: MDA-MB-435
[28] = system: MOLT-4 leukemia
[29] = system: NCI-H226 lung
[30] = system: NCI-H23 lung
[31] = system: NCI-H460 lung
[32] = system: NCI-H522 lung
[33] = system: NCI/ADR-RES ovarian
[34] = system: OVCAR-3 ovarian
[35] = system: OVCAR-4 ovarian
[36] = system: OVCAR-5 ovarian
[37] = system: OVCAR-8 ovarian
[38] = system: PC-3 prostate
[39] = system: RPMI-8226 leukemia
[40] = system: SF-268 CNS
[41] = system: SF-295 CNS
[42] = system: SF-539 CNS
[43] = system: SK-MEL-2 melanoma
[44] = system: SK-MEL-28 melanoma
[45] = system: SK-MEL-5 melanoma
[46] = system: SK-OV-3 ovarian
[47] = system: SN12C renal
[48] = system: SNB-19 CNS
[49] = system: SNB-75 CNS
[50] = system: SR leukemia
[51] = system: SW-620 colon
[52] = system: T-47D breast
[53] = system: TK-10 renal
[54] = system: U251 CNS
[55] = system: UACC-257 melanoma
[56] = system: UACC-62 melanoma
[57] = system: UO-31 renal

Oc1cc2ccccc2c(-c2c(O)c(O)cc3ccccc23)c1O
GI50 [1]: 0.201 µM | TGI [1]: 1.07 µM | GI50 [2]: 1.14 µM | TGI [2]: 10.5 µM | GI50 [3]: 0.41 µM | TGI [3]: 19.3 µM | GI50 [4]: 0.571 µM | TGI [4]: 21.1 µM | GI50 [5]: 4.17 µM | TGI [5]: 27.8 µM | GI50 [6]: 0.852 µM | TGI [6]: 6.55 µM | GI50 [7]: 0.554 µM | TGI [7]: > 27.7 µM | GI50 [8]: 2.06 µM | TGI [8]: 8.95 µM | GI50 [9]: 2.29 µM | TGI [9]: 15.4 µM | GI50 [10]: 1.87 µM | TGI [10]: > 44.4 µM | GI50 [11]: 0.506 µM | TGI [11]: 2.61 µM | GI50 [12]: 0.427 µM | TGI [12]: 11.9 µM | GI50 [13]: 0.323 µM | TGI [13]: 14.8 µM | GI50 [14]: 1.59 µM | TGI [14]: > 20.6 µM | GI50 [15]: 1.03 µM | TGI [15]: 8.39 µM | GI50 [16]: 1.87 µM | TGI [16]: 16.3 µM | GI50 [17]: 2.9 µM | TGI [17]: > 44.1 µM | GI50 [18]: 3.95 µM | TGI [18]: 25.3 µM | GI50 [19]: 0.273 µM | TGI [19]: 3.4 µM | GI50 [20]: 0.0738 µM | GI50 [21]: 2.81 µM | TGI [21]: 17.4 µM | GI50 [22]: 0.939 µM | TGI [22]: 8.57 µM | GI50 [23]: 1.4 µM | TGI [23]: 11.4 µM | GI50 [24]: 3.85 µM | TGI [24]: 21.4 µM | GI50 [25]: 0.228 µM | TGI [25]: 13 µM | GI50 [26]: 4.64 µM | TGI [26]: 34.2 µM | GI50 [27]: 1.17 µM | TGI [27]: 12.4 µM | GI50 [28]: 0.897 µM | TGI [28]: 18.7 µM | GI50 [29]: 3.83 µM | TGI [29]: 26.6 µM | GI50 [30]: 0.703 µM | TGI [30]: 15.4 µM | GI50 [31]: 0.145 µM | TGI [31]: 2.78 µM | GI50 [32]: 2.31 µM | TGI [32]: 21 µM | GI50 [33]: 1.83 µM | TGI [33]: 12.4 µM | GI50 [34]: 0.825 µM | TGI [34]: 17.9 µM | GI50 [35]: 2.3 µM | TGI [35]: 34.3 µM | GI50 [36]: 4.54 µM | TGI [36]: 24.1 µM | GI50 [37]: 2.16 µM | TGI [37]: > 24 µM | GI50 [38]: 2.17 µM | TGI [38]: > 52.2 µM | GI50 [39]: 0.743 µM | TGI [39]: > 28.2 µM | GI50 [40]: 1.88 µM | TGI [40]: 23.3 µM | GI50 [41]: 0.77 µM | TGI [41]: > 29.6 µM | GI50 [42]: 1.68 µM | TGI [42]: 5.46 µM | GI50 [43]: 2.74 µM | TGI [43]: 15.5 µM | GI50 [44]: 3.37 µM | TGI [44]: 20.7 µM | GI50 [45]: 1.1 µM | TGI [45]: 4.49 µM | GI50 [46]: 1.68 µM | TGI [46]: 17.3 µM | GI50 [47]: 1.99 µM | TGI [47]: 15.8 µM | GI50 [48]: 2.75 µM | TGI [48]: 27.8 µM | GI50 [49]: 2.23 µM | TGI [49]: 28.1 µM | GI50 [50]: 0.912 µM | TGI [50]: > 100 µM | GI50 [51]: 3.49 µM | TGI [51]: 26.9 µM | GI50 [52]: 0.319 µM | TGI [52]: 14.5 µM | GI50 [53]: 1.38 µM | TGI [53]: 30.9 µM | GI50 [54]: 1.32 µM | TGI [54]: 20.3 µM | GI50 [55]: 3.24 µM | TGI [55]: 24.3 µM | GI50 [56]: 1.26 µM | TGI [56]: 4.23 µM | GI50 [57]: 0.512 µM | TGI [57]: 6.41 µM

Nc1nc2c(ncn2Cc2ccccc2CO)c(=O)[nH]1
TGI [1]: > 100 µM | TGI [2]: > 100 µM | TGI [3]: > 100 µM | TGI [4]: > 100 µM | TGI [5]: > 100 µM | TGI [6]: > 100 µM | TGI [7]: > 100 µM | TGI [8]: > 100 µM | TGI [9]: > 100 µM | TGI [10]: > 100 µM | TGI [11]: > 100 µM | TGI [12]: > 100 µM | TGI [13]: > 100 µM | TGI [14]: > 100 µM | TGI [15]: > 100 µM | TGI [16]: > 100 µM | TGI [17]: > 100 µM | TGI [18]: > 100 µM | TGI [19]: > 100 µM | TGI [20]: > 100 µM | TGI [21]: > 100 µM | TGI [22]: > 100 µM | TGI [23]: > 100 µM | TGI [24]: > 100 µM | TGI [25]: > 100 µM | TGI [26]: > 100 µM | TGI [27]: > 100 µM | TGI [28]: > 100 µM | TGI [29]: > 100 µM | TGI [30]: > 100 µM | TGI [31]: > 100 µM | TGI [32]: > 100 µM | TGI [33]: > 100 µM | TGI [34]: > 100 µM | TGI [35]: > 100 µM | TGI [36]: > 100 µM | TGI [37]: > 100 µM | TGI [38]: > 100 µM | TGI [39]: > 100 µM | TGI [40]: > 100 µM | TGI [41]: > 100 µM | TGI [42]: > 100 µM | TGI [43]: > 100 µM | TGI [44]: > 100 µM | TGI [45]: > 100 µM | TGI [46]: > 100 µM | TGI [47]: > 100 µM | TGI [48]: > 100 µM | TGI [49]: > 100 µM | TGI [50]: > 100 µM | TGI [51]: > 100 µM | TGI [52]: > 100 µM | TGI [53]: > 100 µM | TGI [54]: > 100 µM | TGI [55]: > 100 µM | TGI [56]: > 100 µM | TGI [57]: > 100 µM
